Tested on: chromatin
Experiment: single-particle tracking, 500 ms, motion blurring: chromatin residence time
Assay type: cell-based, mouse
Conditions: for Percentage, Specific / Percentage, Unspecific / Residence time, Specific / Residence time, Unspecific / Residence time, specific binding: 500 ms; for Residence time, specific binding / specific residence time, in words: −LIF 72 h; for Residence time, specific binding: mESCs, mean ± SD (n = 3); for specific residence time, in words: p value left to right = 0.027, 0.036; for unspecific residence time, effect of LIF withdrawal: ns. p value > 0.841
Excerpt: Although HP1 is a multifunctional protein, its best-characterised function is its ability to specifically bind to H3 tails harbouring H3K9me3. This underpins the establishment of localised, as well as higher-order, chromatin domains. Indeed, binding of structural chromatin proteins, such as HP1, is crucial in establishing heterochromatin during stem cell differentiation. We therefore decided to focus on the chromatin bound fraction of HP1γ. We used a concept called motion blurring in which long exposures are used to blur molecules that are diffusing so they are not detected. Therefore, only molecules bound throughout the long exposure are imaged. We performed SPT at 500 ms time resolution of mESCs expressing either HP1γWT or HP1γR38/9A mutant proteins (−/+ LIF). Movies of representative cells are shown in Additional file 8: Movie S1, Additional file 9: Movie S2, Additional file 10: Movie S3, and Additional file 11: Movie S4.
Parental E14 mouse embryonic stem cell (mESC) line was profiled by transcriptome analysis, qPCR and potency assays and was routinely tested for mycoplasma contamination and tested negative. Cells were cultured in DMEM (Gibco) supplemented with 15% standard FCS (Gibco), 0.1 mM non-essential amino acids (Gibco), 1% penicillin/streptomycin, 2 mM L-glutamine (Gibco), 1 mM sodium pyruvate (Gibco), 0.1 mM β-mercaptoethanol (Life Technologies) and 10^6 units/l mLIF (ESGRO, Millipore). E14 cells were stored in incubators at 37 °C in 7.5% CO2 (100% humidity) and maintained in 0.1% gelatin coated 10-cm culture dishes with 1:6 passaging every 2 days. Media was changed on a daily basis. E14 ESCs expressing mouse mEos3.2–HaloTag-HP1 fusion proteins were generated by transfecting appropriate pSB7 plasmids into E14 cells using Lipofectamine 2000 transfection reagent (Invitrogen), followed by selection in 600 µg/ml geneticin (Life Technologies). After 2 weeks of geneticin selection, cells were sorted using a Sony SH800S cell sorter for the expression of mEos3.2. Differentiation of ESCs was induced by LIF withdrawal. ESCs cultured in complete ES cell media (+ LIF) were trypsinised and washed twice in 1x PBS to remove residual LIF, seeded into ES cell media without LIF and incubated for 24, 48 or 72 h.
An IX73 Olympus inverted microscope was used with circularly polarised laser beams aligned and focused at the back aperture of an Olympus 1.40 NA 100 × oil objective (Universal Plan Super Apochromat, 100 × , NA 1.40, UPLSAPO100XO/1.4). Continuous wavelength diode laser light sources used include a 561-nm (Cobolt, Jive 200, 200 mW) and a 405-nm laser (Stradus, Toptica, 405–100, 100 mW). Oblique angle illumination was achieved by aligning the laser off axis such that the emergent beam at the sample interface was near-collimated and incident at an angle slightly less than the critical angle θc ~ 67° for a glass/water interface. This generated a ~ 50 μm diameter excitation footprint. The power of the collimated beams at the back aperture of the microscope was 10 kW/cm^2 and 10–100 W/cm^2 for the 561-nm and 405-nm laser beams, respectively. The lasers were reflected by dichroic mirrors (Semrock, Di01-R405/488/561/635). The fluorescence emission was collected through the same objective and then further filtered using a combination of long-pass and band-pass filters (BLP01-561R and FF01-587/35 for 561 nm excitation). The emission signal was projected onto an EMCCD (Photometrics, Evolve 512 Delta) with an electron multiplication gain of 250 ADU/photon operating in a frame transfer mode.
mESCs expressing mEos3.2–HaloTag-tagged HP1γ were passaged 2 days before imaging onto 35-mm glass bottom dishes No 1.0 (MatTek Corporation P35G-1.0-14-C Case) in phenol red-free serum and LIF conditions, if not stated otherwise. […]

Substance	Percentage, Specific (+LIF, replicate i)	Percentage, Unspecific (+LIF, replicate i)	Residence time, Specific (+LIF, replicate i)	Residence time, Unspecific (+LIF, replicate i)	Percentage, Specific (+LIF, replicate ii)	Percentage, Unspecific (+LIF, replicate ii)	Residence time, Specific (+LIF, replicate ii)	Residence time, Unspecific (+LIF, replicate ii)	Percentage, Specific (+LIF, replicate iii)	Percentage, Unspecific (+LIF, replicate iii)	Residence time, Specific (+LIF, replicate iii)	Residence time, Unspecific (+LIF, replicate iii)	Residence time, specific binding	specific residence time, in words	unspecific residence time, effect of LIF withdrawal (−LIF 72 h versus +LIF)	Percentage, Specific (−LIF, replicate i)	Percentage, Unspecific (−LIF, replicate i)	Residence time, Specific (−LIF, replicate i)	Residence time, Unspecific (−LIF, replicate i)	Percentage, Specific (−LIF, replicate ii)	also measured
HP1γWT: full-length mouse HP1γ wild type, as GST or mEos3.2–HaloTag fusion protein	91.000%	9.000%	36.000 s	4.400 s	93.400%	6.600%	27.527 s	1.549 s	87.000%	13.000%	22.800 s	1.500 s	49.2 ± 12.3 s	significantly increased	no effect	88.000%	12.000%	55.000 s	6.000 s	93.500%	increase of specific residence time upon differentiation (−LIF 72 h versus +LIF): 20 s; Percentage, Unspecific (−LIF, replicate ii): 6.500%; Residence time, Specific (−LIF, replicate ii): 57.488 s; Residence time, Unspecific (−LIF, replicate ii): 1.811 s; Percentage, Specific (−LIF, replicate iii): 88.000%; Percentage, Unspecific (−LIF, replicate iii): 12.000%; Residence time, Specific (−LIF, replicate iii): 35.000 s; Residence time, Unspecific (−LIF, replicate iii): 2.300 s
HP1γR38/9A: HP1γ with alanine substitutions at amino acids 38 and 39 to mimic citrullination	89.000%	11.000%	26.000 s	4.100 s	90.900%	9.100%	17.900 s	2.100 s	82.500%	17.500%	17.400 s	1.300 s	29.5 ± 4.1 s	significantly lower than for HP1γWT molecules	no effect	83.000%	17.000%	34.000 s	4.900 s	90.800%	specific residence time, in words (listed as R38/9A mutant HP1γ): considerably shorter; Percentage, Unspecific (−LIF, replicate ii): 9.200%; Residence time, Specific (−LIF, replicate ii): 28.500 s; Residence time, Unspecific (−LIF, replicate ii): 1.700 s; Percentage, Specific (−LIF, replicate iii): 88.200%; Percentage, Unspecific (−LIF, replicate iii): 11.800%; Residence time, Specific (−LIF, replicate iii): 25.900 s; Residence time, Unspecific (−LIF, replicate iii): 1.800 s

— article PMC6444592, “Citrullination of HP1γ chromodomain affects association with chromatin” (Epigenetics & Chromatin, 2019)
